These results are taken from patent US20260191961A1, “RUTHENIUM (II) POLYPYRIDYL COMPLEX AS A PHOTO-SENSITISER IN PHOTODYNAMIC THERAPY, AND A PROCEDURE FOR MAKING SAID RUTHENIUM (II) POLYPYRIDYL COMPLEX” (UNIVERSITÀ DEGLI STUDI DI FIRENZE, priority 2022, published 2026).

Read-outs that look alike come from different tables or passages of the source.

The subject of experiment [1] is squamous cell carcinoma of the epidermis (A431). Briefly: In-vitro photo-cytotoxicity, MTT assay, A431. In kind it is cell-based. Conditions: 1 h incubation, MTT after 24 h, read-out: IC50 (maximum response set to zero). The procedure:
(§1) The activity of compound IIIa as a photosensitising agent in photodynamic therapy was evaluated on two in-vitro tumour models: squamous cell carcinoma of the epidermis (A431) and glioblastoma multiforme (U87MG). Cells cultured on 96-well plates were treated with increasing concentrations of IIIa dispersed in the culture medium for one hour. At the end of the incubation, the medium was replaced, and the cells were exposed to LED light (λmax 462 nm) for 30 minutes, or were left in the dark during the same time. At the end of the 30 minutes, the cells were placed back and maintained in the incubator for 24 hours before measuring the metabolic activity by MTT assay. Six replicates were used for each condition, and cell viability of 100% was calculated from the response of untreated cells not exposed to LED light. […] The high specificity of IIIa, defined as toxicity only when exposed to light, is evident from the difference in IC50 values, which indicate a potent cytotoxic activity in the presence of light irradiation and substantial inertia in the dark at the concentrations tested, as shown in Table 3.
The activity of compound IIIb as a photosensitising agent in photodynamic therapy was evaluated on an in vitro tumour model, i.e., squamous cell carcinoma of the epidermis (A431), following the same protocol as compound IIIa. […] The high specificity of IIIb, defined as toxicity only when exposed to light, is evident from the difference in IC50 values, which indicate a potent cytotoxic activity in the presence of light irradiation and substantial inertia in the dark at test concentrations, see Table 4.
The activity of compound IIIb encapsulated in cubosomes as a photosensitising agent in photodynamic therapy was evaluated on an in vitro tumour model: squamous cell carcinoma of the epidermis (A431), following the same protocol as compound IIIa and IIIb as such. […] However, the incorporation into a delivery system can bring numerous benefits, including increased distribution in the tumour after in vivo administration, increased stability and solubility, and improved crossing of biological barriers.

Experiment [2] is described as follows: Singlet oxygen quantum yield by direct 1O2 phosphorescence at 1270 nm. The experiment is classed as physicochemical. Conditions: acetonitrile; direct phosphorescence signal of 1O2 at 1270 nm; reference [Ru(phen)3Cl2]. The procedure: The capacity of complexes IIIa-c to efficiently generate singlet oxygen (^1O2) upon irradiation with light is a key factor in the evaluation of their potential as photosensitising agents for applications in photodynamic therapy. In this connection, the singlet oxygen quantum yields of complexes IIIa-c were determined by means of direct phosphorescence signal of ^1O2 at 1270 nm generated by irradiation of acetonitrile solutions of the complexes and using dichlorotris(1,10-phenanthroline)ruthenium (II) chloride ([Ru(phen)3Cl2]) as a standard reference. A Horiba FluoroMax Plus spectrofluorometer was used for these measurements.

Experiment [3] is described as follows: DHN assay (indirect UV-visible probe for 1O2). In kind it is physicochemical. Particulars: acetonitrile, LED 400-500 nm; for kobs, rate constant of the DHN photo-oxidation process: [DHN]=330 μM, [Ru]=10 μM; for Φ1O2 (b) singlet oxygen quantum yield: indirect UV-visible measurements with DHN probe, standard [Ru(phen)3]Cl2. As for the experimental part: A confirmation of the production of singlet oxygen (^1O2) with such a high quantum yields by the three IIIa-c molecular systems was obtained using 1,5-dihydroxynaphthalene (DHN) as an indirect chemical probe for ^1O2 and [Ru(phen)3]Cl2 as a commercial standard. In the DHN assay, the probe is selectively and quantitatively oxidised in the presence of ^1O2 to give the corresponding photo-oxidation product 5-hydroxy-1,4-naphthalenedione (Juglone). The production of ^1O2 was assessed by monitoring the decrease in the DHN absorption band at λ=297 nm and the corresponding increase in the Juglone band at λ=427 nm. […] On this basis, the quantum yield of formation of ^1O2 can be obtained via the equation
where φΔ are the quantum yields of ^1O2 production from the photosensitising agents, k are the rate constants obtained from the DHN assays, labs represents the absolute value for the integration of the absorption of the photosensitising agents in the spectral emission region of the LED lamp (400 nm to 500 nm), and the subscript ST indicates the commercial standard [Ru(phen)3]Cl2.

The conditions of experiment [4]: value of the commercial standard used for the calculation; cited from earlier work.
The subject of experiment [5] is Methastatic Lung Adenocarcinoma (Calu-3). Briefly: In-vitro photo-cytotoxicity, MTT assay, Calu-3. In kind it is cell-based. Particulars: read-out: IC50 (maximum response set to zero). As for the experimental part:
The activity of compound IIIa as a photosensitising agent in photodynamic therapy was evaluated on two in-vitro tumour models: squamous cell carcinoma of the epidermis (A431) and glioblastoma multiforme (U87MG). Cells cultured on 96-well plates were treated with increasing concentrations of IIIa dispersed in the culture medium for one hour. At the end of the incubation, the medium was replaced, and the cells were exposed to LED light (λmax 462 nm) for 30 minutes, or were left in the dark during the same time. At the end of the 30 minutes, the cells were placed back and maintained in the incubator for 24 hours before measuring the metabolic activity by MTT assay. Six replicates were used for each condition, and cell viability of 100% was calculated from the response of untreated cells not exposed to LED light. […]
The activity of compound IIIc as a photosensitising agent in photodynamic therapy was evaluated on an in-vitro tumour model, Methastatic Lung Adenocarcinoma (Calu-3), following the same protocol as compounds IIIa and IIIb. […]
The activity of compound IIIc encapsulated in cubosomes as a photosensitising agent in photodynamic therapy was evaluated on an in vitro tumour model: Methastatic Lung Adenocarcinoma (Calu-3), following the same protocol as compound IIIa and IIIb. […]

For experiment [6], the system named is glioblastoma multiforme (U87MG). Briefly: In-vitro photo-cytotoxicity, MTT assay, U87MG. The experiment is classed as cell-based. Conditions: 1 h incubation, MTT after 24 h, read-out: IC50 (maximum response set to zero). The procedure:
as §1

Where [7] appears, read: 30′ LED light exposure (λmax 462 nm).

For `O=C([O-])c1ccnc(-c2cc(C(=O)[O-])ccn2)c1.[Ru+2].c1ccc2cc3nc4c5cccnc5c5ncccc5c4nc3cc2c1.c1ccc2cc3nc4c5cccnc5c5ncccc5c4nc3cc2c1` [Complex IIIb, [Ru(4,4′-dicarboxylate-2,2′-bipyridine)(benzo[i]dipyrido[3,2-a:2′,3′-c]phenazine)2]], the figures for the IC50 in experiment [1] (setting [7]) and in experiment [1] (in the dark) were 0.191 µM and more than 40 µM, respectively. Further, the “Φ1O2 (a) singlet oxygen quantum yield” value in experiment [2] is listed as 0.50 ± 0.07. In addition, the “kobs, rate constant of the DHN photo-oxidation process” value (from here on “kobs, rate constant”) in experiment [3] is recorded as 2.71×10^−3. In addition, in experiment [3], the “Φ1O2 (b) singlet oxygen quantum yield” value was 0.47.
Turning to `[Cl][Ru][Cl].c1cnc2c(c1)ccc1cccnc12.c1cnc2c(c1)ccc1cccnc12.c1cnc2c(c1)ccc1cccnc12` [[Ru(phen)3]Cl2, dichlorotris(1,10-phenanthroline)ruthenium (II) chloride, reference compound], the “standard quantum yield of 1O2 production” value in experiment [4] is 0.38. Also, the “kobs, rate constant” value in experiment [3] is listed as 9.41×10^−4.
With `F[P-](F)(F)(F)(F)F.F[P-](F)(F)(F)(F)F.O=C(c1ccnc(-c2cc(C(=O)N3CCOCC3)ccn2)c1)N1CCOCC1.[Ru+2].c1ccc2cc3nc4c5cccnc5c5ncccc5c4nc3cc2c1.c1ccc2cc3nc4c5cccnc5c5ncccc5c4nc3cc2c1` [Complex IIIc], the IC50 in experiment [5] (30′ LED light exposure) is 0.0639 µM; in experiment [5] (in the dark), more than 40 µM. The “Φ1O2 (a) singlet oxygen quantum yield” value in experiment [2] is reported as 0.54 ± 0.6. Also, in experiment [3], the “kobs, rate constant” value was 1.83×10^−3. For the same compound, in experiment [3], the “Φ1O2 (b) singlet oxygen quantum yield” value turned out to be 0.42.
Regarding `Cc1ccnc(-c2cc(C)ccn2)c1.F[P-](F)(F)(F)(F)F.F[P-](F)(F)(F)(F)F.[Ru+2].c1ccc2cc3nc4c5cccnc5c5ncccc5c4nc3cc2c1.c1ccc2cc3nc4c5cccnc5c5ncccc5c4nc3cc2c1` [Complex IIIa], the IC50 is 0.164 µM in experiment [6] (setting [7]), more than 40 µM in experiment [6] (in the dark), 0.0253 µM in experiment [1] (setting [7]) and more than 40 µM in experiment [1] (in the dark). In experiment [2], the “Φ1O2 (a) singlet oxygen quantum yield” value came out at 0.54 ± 0.06. Besides, in experiment [3], the “kobs, rate constant” value was 1.85×10^−3. Moreover, the “Φ1O2 (b) singlet oxygen quantum yield” value in experiment [3] is on record as 0.44.
